In PubChem BioAssay AID1508591:

details: rat; liver microsomes; pH 7.4; 15.0 min; 1.0 µM

Row | Compound | half-life [min]
1 | O=C(Nc1ccc(S(=O)(=O)Nc2nccs2)cc1)c1ccnc(-c2ccccc2)c1 | > 30
2 | Cc1nn2c(c1-c1ccccc1Oc1ccccc1)N(Cc1ccccc1O)CCC2 | 1.76
3 | CCN(CC)CCCNC(=O)c1oc2c(c1C)-c1nn(Cc3ccc(Cl)cc3)cc1CC2 | > 30
4 | Cc1ccccc1C(=O)N1CCc2cc(-c3nc(NC(=O)Cc4ccccc4)sc3C)ccc21 | 24
5 | COc1cc(-c2nc(Nc3ccc(F)c(F)c3)c3ccccc3n2)cc(OC)n1 | > 30
6 | COC(=O)C1=C(C)NC(C)=C(C(=O)O[C@@H]2CCCN(Cc3ccccc3)C2)[C@@H]1c1cccc([N+](=O)[O-])c1 | 1.3
7 | COc1nccc(-c2nc(Nc3ccc(F)c(F)c3)c3ccccc3n2)c1Cl | > 30
8 | Cn1nnnc1Sc1ncnc2scc(-c3cc4ccccc4o3)c12 | 1.05
9 | CNc1ccc(Br)cc(C(=O)/C=C/c2ccc(OC)cc2OC)c1=O | 5.16
10 | Cc1ccc(N2CCN(c3cnn(-c4nc5ccccc5s4)c(=O)c3Cl)CC2C)cc1 (configuration not stated) | 10.5
11 | CCOc1ccc(CCNC(=O)c2ccc(C3(C(F)(F)F)N=N3)cc2)cc1OCC | 11
12 | CCOC(=O)C1CCN(c2ncc(-c3ccc4c(c3)OCCCO4)s2)CC1 | 2.37
13 | Cc1ccc(NC(=O)c2cc(-c3ccc[nH]3)n[nH]2)cc1F | 6.16
14 | CCN1C(=O)c2ccccc2S(=O)c2ccc(C(=O)NCc3ccccc3)cc21 (configuration not stated) | 8.12
15 | Cc1ccc(NS(=O)(=O)c2ccc3[nH]c4c(c3c2)CCCCCC4)cc1 | 2.08
16 | CN(C)c1cc(-c2nc(Nc3ccc(F)c(F)c3)c3ccccc3n2)ccn1 | 13
17 | O=C(Nc1ccc(S(=O)(=O)Nc2nccs2)cc1)c1ccc2ccccc2c1 | > 30
18 | Cc1nc(N)nc2ccccc12 | > 30
19 | Cc1cc(/C=C2/C(=O)Nc3ccccc32)cc(C)c1O | 11
20 | O=C(c1ccc2ncccc2c1)N1CCc2c(nc3cc[nH]n3c2=O)C1 | > 30
21 | Nc1c(C(=O)Nc2ccc(Cl)c(C(F)(F)F)c2)sc2nc3c(cc12)N1CCC3CC1 | 22.1
22 | Cc1ccc(S(=O)(=O)NCCC(=O)Nc2nc(-c3ccccc3)cs2)cc1 | 2.4
23 | COc1ccc(-n2nc(C3CCCN(C(=O)Cc4ccccn4)C3)[nH]c2=O)cc1 (configuration not stated) | > 30
24 | CC(=O)c1ccc(N2CCN(c3ccc(NC(=O)c4ccc(F)cc4)cc3C(=O)O)CC2)cc1 | > 30
25 | O=C1CCCC2=C1C1(CCS(=O)(=O)C1)N=C(Nc1nc3ccccc3o1)N2 (configuration not stated) | 17
26 | C[C@@H](c1ccc2nccn2c1)n1nnc2ncc(-c3cnn(C)c3)nc21 | > 30
27 | NC(=O)C1CCN(c2ncc(-c3ccc4c(c3)OC(F)(F)O4)s2)CC1 | 9.4

Row | Compound | half-life [min]
28 | Cc1cccc2nc(NC3=NC(c4[nH]ncc4Cl)C4=C(CCCC4=O)N3)oc12 (configuration not stated) | 1.6
29 | O=C(Nc1ncc(Cc2ccc(C(F)(F)F)cc2)s1)c1cnc(-c2ccccc2)o1 | > 30
30 | O=C(NC1CCCc2c1cnn2-c1ccc(F)cc1F)c1ccc(C2(C(F)(F)F)N=N2)cc1 (configuration not stated) | > 30
31 | COc1ccc(S(=O)(=O)Nc2cnccc2C(=O)Nc2nc(-c3ccccc3)cs2)cc1 | 1.6
32 | Cc1cc(-c2nnc3n2CCCCC3)c(C)n1-c1ccc(Cl)cc1 | 1.9
33 | O=S(=O)(Nc1nccs1)c1ccc(NCc2cccc(Cl)c2Cl)cc1 | 25
34 | Fc1cc(Nc2nc(-c3ccncc3)nc3ccccc23)ccc1-c1ccc(F)c(F)c1F | 24
35 | COCCOc1cnc2ccn([C@H](C)c3nnc4c(F)cc(-c5cnn(C)c5)cn34)c(=O)c2c1 | > 30
36 | CC(C)(C)NS(=O)(=O)c1ccc(-c2ccc3[nH]nc(N)c3c2)cc1 | 17.2
37 | CN1CC(CNC(=O)OCc2ccccc2)C[C@H]2c3cccc4c3c(cn4C)CC21 (some centres not stated) | 14.3
38 | Cc1cccc(CS(=O)(=O)c2ncc(Cl)c(C(=O)Nc3nc4ccc(F)cc4s3)n2)c1 | 1.43
39 | CC(C)(C)c1ccc(-c2csc(N3CCC(C(N)=O)CC3)n2)cc1 | 13.9
40 | CC(C)(C)C(=O)C(Oc1ccc(Cl)cc1)n1ccnc1 (configuration not stated) | > 30
41 | COc1cccc(C(=O)Nc2ccc([S+](=O)([O-])Nc3nccs3)cc2)c1O | > 30
42 | Cc1ccc(N2CCC(CNc3nc(-c4ccccc4C(C)C)ncc3C)CC2)cn1 | 2.6
43 | CC1CCN(S(=O)(=O)c2ccc3c(ccc(=O)n3CC(=O)NCc3ccc(Cl)cc3)c2)CC1 | 1.45
44 | O=[S+]([O-])(Nc1nccs1)c1ccc(NCc2cc(Cl)cc(Br)c2O)cc1 | 12
45 | NC(=O)C1CCN(c2nc(-c3ccccc3[N+](=O)[O-])cs2)CC1 | 3.9
46 | CN(C)c1ccccc1-c1csc(N2CCC(C(N)=O)CC2)n1 | 9.95
47 | CC(C)(N)CNC(=O)CC1CCC2(CC1)OOC1(O2)C2CC3CC(C2)CC1C3 (configuration not stated) | > 30
48 | COC(=N)c1nc2ccc3ncnc(Nc4ccc(F)cc4Br)c3c2s1 | > 30
49 | CN(c1ncccc1CNc1nc(Nc2ccc3c(c2)CC(=O)N3)ncc1C(F)(F)F)S(C)(=O)=O | > 30
50 | Cc1ccc(S(=O)(=O)Nc2ccc(F)cc2C(=O)Nc2nc(-c3ccccc3)cs2)cc1 | 3
51 | CO[C@@H]1[C@H](N(C)C(=O)c2ccccc2)C[C@H]2O[C@]1(C)n1c3ccccc3c3c4c(c5c6ccccc6n2c5c31)C(=O)NC4 | 6.54
52 | COc1cc(C(=O)Nc2nc(-c3ccccc3)cs2)ccc1NS(=O)(=O)c1ccc(C)cc1 | 5.2
53 | Cc1ccccc1-c1nc(NCc2cccs2)c2ccccc2n1 | 2.74

The remaining lines, values ahead:

Row | half-life [min] | Compound
54 | 13.4 | O=C1NCc2cc(-c3cc4c(ccn4Cc4ccncc4)c(N4CCOCC4)n3)ccc21
55 | > 30 | CS(=O)(=O)c1ccc(-c2nnc(/C=C/c3nnc(-c4ccc(C#N)cc4)o3)n2-c2ccccc2Cl)nc1
56 | > 30 | N#Cc1cc(NC(=O)Nc2nnc(-c3ccncc3)s2)ccc1-c1cn[nH]c1
57 | > 30 | COc1cc2nc(N3CCCC3)nc(NCCCCCN3CCCC3)c2cc1OC
58 | > 30 | O=C(Nc1ncc(Cc2ccc(C(F)(F)F)cc2)s1)c1ccco1
59 | 25.5 | C#Cc1ccc(NC(=O)c2cnn3c(C)cc(C)nc23)cc1
60 | 24.2 | Cc1cc2c(-c3cccc(O)c3)nc(-c3c(C)noc3C)cc2[nH]1
61 | 4.01 | CCC(Sc1nc2ccccc2c2nc(CCc3c(C)n[nH]c3C)nn12)C(=O)Nc1ccc(F)cc1 (configuration not stated)
62 | 15.2 | CC1(C)CNc2cc(NC(=O)c3cccnc3NCc3ccncc3)ccc21
63 | 1.6 | Cc1ccc(OCCn2c(CCNC(=O)c3ccccc3Br)nc3ccccc32)cc1
64 | 1.4 | CCn1nnnc1Sc1ncnc2scc(-c3ccc(C)cc3)c12
65 | 20.1 | CCOC(=O)c1ccc(N2C(=O)c3n[nH]c(-c4cccs4)c3C2c2ccc(Cl)cc2Cl)cc1 (configuration not stated)
66 | > 30 | C[C@H]1CN(C(=O)Nc2ccc(F)cc2)C[C@@H]1c1nc(-c2ccccc2)no1
67 | > 30 | CC(C)(C)n1nc(-c2ccc(Cl)cc2)c2c(N)ncnc21
68 | > 30 | COc1ccc(NC(C)=O)cc1S(=O)(=O)Nc1ccc(Br)cc1
69 | 9.75 | CCc1oc2ccccc2c1C(=O)c1cc(Br)c(O)c(Br)c1
70 | 25 | CCCc1cc(C)[nH]c(=O)c1CNC(=O)c1cc(-c2ccc(N3CCN(C(C)C)CC3)nc2)cc2c1cnn2C(C)C
71 | 11.7 | Nc1cc(CN2C(=O)c3ccccc3C2=O)cc(Cl)c1O
72 | 22 | Cc1ccc([S+](=O)([O-])n2cc(Cc3ccc(-c4ccccc4)cc3)c3ccccc32)cc1
73 | > 30 | CC(=O)Nc1ccc(-c2csc(N3CCC(C(N)=O)CC3)n2)cc1
74 | 2.33 | CC(C)(C)c1ccc(C(=O)Nc2ccc3c(c2)CCCN3C(=O)c2cccs2)cc1
75 | > 30 | O=C(NCCN1CCOCC1)C1CC(=O)N(c2n[nH]c3cc(Br)ccc23)C1 (configuration not stated)
76 | 9.3 | COc1ccc(CNC(=O)c2cnc3ccccc3n2)cc1
77 | 2.3 | CC(C)c1ccccc1-c1ncc(F)c(NC(C)(C)c2ccc(-c3cccnc3)cc2)n1
78 | 1 | COc1c(C)c2c(c(O)c1C/C=C(\C)CCC(=O)OCCN1CCOCC1)C(=O)OC2

Row | half-life [min] | Compound
79 | 1.5 | CCOc1ccc(CCNC(=O)c2cc3sccc3n2Cc2ccccn2)cc1OCC
80 | > 30 | Cc1ccc2nc(-c3cc(NC(=O)c4ccc5c(c4)OCCO5)ccc3Cl)oc2c1
81 | > 30 | CN(C)CCNC(=O)c1nc2nc(-c3ccccc3)c(-c3cccc(F)c3)cc2n1C
82 | 8.23 | Cc1ccc(-c2ccc(CNc3nc(-c4ccccc4C(C)C)nc4ccccc34)cc2)cn1
83 | 11 | Cc1ccccc1C(=O)N1CCc2cc(N3CCC(NC(=O)Cc4ccccc4)C3)ccc21 (configuration not stated)
84 | 15 | COc1ccc(-n2nc(C3CCN([S+](=O)([O-])c4cccc(C(F)(F)F)c4)CC3)[nH]c2=O)cc1
85 | > 30 | CS(=O)(=O)Nc1cccc(-c2nccc(-n3ccnc3)n2)c1
86 | 1.74 | CN(C(=O)OC(C)(C)C)[C@@H](Cc1ccc(O[S+](=O)([O-])c2cccc3cnccc23)cc1)C(=O)N1CCN(C(=O)OCc2ccccc2)CC1
87 | 2.33 | COc1ccc(CCNc2ncnc3c2c(-c2ccccc2)cn3-c2cccc(Cl)c2)cc1OC
88 | 8.6 | Cc1sc(NC(=O)Cc2ccc3c(c2)OCO3)nc1-c1ccc2c(c1)CCN2
89 | 1.57 | Cc1cccc(N(C)c2nc3ccccc3c3nnc(C)n23)c1
90 | 6.5 | CCn1c(C)c(C(C)=O)c(C)c1C(=O)Nc1cccc([S+](=O)([O-])N(C)C)c1
91 | > 30 | Cc1onc(-c2ccccc2)c1C(=O)Nc1nnc(COc2ccc(Cl)cc2)s1
92 | > 30 | CC(=O)Nc1ccc(C(=O)Nc2ccccc2N)cc1
93 | > 30 | Nc1nc(N)c2cc(Sc3ccc4ccccc4c3)ccc2n1
94 | 22.4 | COc1ccc(C(=O)NC2CCCc3c2[nH]c2c(Cl)cccc32)cc1OC (configuration not stated)
95 | 5.51 | CC[C@H](CO)Nc1nc(NCc2ccccc2)c2ncn(C(C)C)c2n1
96 | > 30 | Cc1ccnc(NC(=S)N2CCN(c3ncc(C(F)(F)F)cc3Cl)CC2)c1
97 | 6.5 | Clc1ccccc1CSc1nc2ncc(Br)cc2[nH]1
98 | 12.7 | O=C(NCc1cccs1)c1cn2cc(-c3ccccc3)sc2n1
99 | 5.73 | O=C1Nc2ccc(-c3cccc(C(F)(F)F)c3)cc2C(=O)N2CCN(C(=O)COc3ccccc3)C[C@H]12
100 | 18 | O=[S+]([O-])(Nc1cnc2ccccc2c1)c1ccc(NCc2ccc(Cl)cc2O)cc1
101 | 20 | O=C1Nc2ccccc2/C1=C\c1ccc(O)c(F)c1
102 | 2.87 | Cc1cnc(-c2ccccc2C(C)C)nc1NCC1CCN(c2cccnc2)C1 (configuration not stated)
